PubChem BioAssay (NCI)
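Assay format: 96-well plates, 48-hour exposure. TGI: concentration producing complete growth inhibition.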

How the values were obtained:
Test in all cases: NCI-60 cell line screen, 48 h
786-0 renal = test system: 786-0 renal
A498 renal = test system: A498 renal
A549 NSCLC = test system: A549 NSCLC
ACHN renal = test system: ACHN renal
CAKI-1 renal = test system: CAKI-1 renal
CCRF-CEM leukemia = test system: CCRF-CEM leukemia
COLO 205 colon = test system: COLO 205 colon
DLD-1 colon = test system: DLD-1 colon
DMS 114 small cell lung = test system: DMS 114 small cell lung
DMS 273 small cell lung = test system: DMS 273 small cell lung
EKVX NSCLC = test system: EKVX NSCLC
HCC-2998 colon = test system: HCC-2998 colon
HCT-116 colon = test system: HCT-116 colon
HCT-15 colon = test system: HCT-15 colon
HL-60(TB) leukemia = test system: HL-60(TB) leukemia
HOP-18 NSCLC = test system: HOP-18 NSCLC
HOP-62 NSCLC = test system: HOP-62 NSCLC
HOP-92 NSCLC = test system: HOP-92 NSCLC
HT29 colon = test system: HT29 colon
IGROV1 ovarian = test system: IGROV1 ovarian
K-562 leukemia = test system: K-562 leukemia
KM12 colon = test system: KM12 colon
KM20L2 colon = test system: KM20L2 colon
LOX IMVI melanoma = test system: LOX IMVI melanoma
LXFL 529 NSCLC = test system: LXFL 529 NSCLC
M14 melanoma = test system: M14 melanoma
M19-MEL melanoma = test system: M19-MEL melanoma
MALME-3M melanoma = test system: MALME-3M melanoma
NCI-H226 lung = test system: NCI-H226 lung
NCI-H23 lung = test system: NCI-H23 lung
NCI-H460 lung = test system: NCI-H460 lung
NCI-H522 lung = test system: NCI-H522 lung
OVCAR-3 ovarian = test system: OVCAR-3 ovarian
OVCAR-4 ovarian = test system: OVCAR-4 ovarian
OVCAR-5 ovarian = test system: OVCAR-5 ovarian
OVCAR-8 ovarian = test system: OVCAR-8 ovarian
RXF 393 renal = test system: RXF 393 renal
SF-268 CNS = test system: SF-268 CNS
SF-295 CNS = test system: SF-295 CNS
SF-539 CNS = test system: SF-539 CNS
SK-MEL-2 melanoma = test system: SK-MEL-2 melanoma
SK-MEL-28 melanoma = test system: SK-MEL-28 melanoma
SK-MEL-5 melanoma = test system: SK-MEL-5 melanoma
SK-OV-3 ovarian = test system: SK-OV-3 ovarian
SN12C renal = test system: SN12C renal
SNB-19 CNS = test system: SNB-19 CNS
SNB-75 CNS = test system: SNB-75 CNS
SNB-78 CNS = test system: SNB-78 CNS
SR leukemia = test system: SR leukemia
SW-620 colon = test system: SW-620 colon
TK-10 renal = test system: TK-10 renal
U251 CNS = test system: U251 CNS
UACC-257 melanoma = test system: UACC-257 melanoma
UACC-62 melanoma = test system: UACC-62 melanoma
UO-31 renal = test system: UO-31 renal
XF 498 CNS = test system: XF 498 CNS

Measured: TGI

O=C1C2C=CC(n3[nH]c(=O)n(Cc4ccccc4)c3=O)CC2C(=O)N1c1cccc(Cl)c1 (stereo unspecified)
> 100 µM: 786-0 renal | A498 renal | A549 NSCLC | ACHN renal | CAKI-1 renal | CCRF-CEM leukemia | COLO 205 colon | DLD-1 colon | DMS 114 small cell lung | DMS 273 small cell lung | EKVX NSCLC | HCC-2998 colon | HCT-116 colon | HCT-15 colon | HL-60(TB) leukemia | HOP-18 NSCLC | HOP-62 NSCLC | HOP-92 NSCLC | HT29 colon | IGROV1 ovarian | K-562 leukemia | KM12 colon | KM20L2 colon | LOX IMVI melanoma | LXFL 529 NSCLC | M14 melanoma | M19-MEL melanoma | MALME-3M melanoma | NCI-H226 lung | NCI-H23 lung | NCI-H460 lung | NCI-H522 lung | OVCAR-3 ovarian | OVCAR-4 ovarian | OVCAR-5 ovarian | OVCAR-8 ovarian | RXF 393 renal | SF-268 CNS | SF-295 CNS | SF-539 CNS | SK-MEL-2 melanoma | SK-MEL-28 melanoma | SK-MEL-5 melanoma | SK-OV-3 ovarian | SN12C renal | SNB-19 CNS | SNB-75 CNS | SNB-78 CNS | SR leukemia | SW-620 colon | TK-10 renal | U251 CNS | UACC-257 melanoma | UACC-62 melanoma | UO-31 renal | XF 498 CNS
